Structures can show the parent of a compound that is named as a salt.
Legend:
[1] = biological target: T1, NA re-uptake (Rattus norvegicus, UniProt Q63380); test: Measurement of noradrenalin re-uptake in rat brain synaptosomes; assay type: biochemical; conditions: synaptosomes (P2 fraction) from hypothalamus of male rat brains
T1 construct: Synaptosomes from rat brain areas were freshly isolated for the purposes of these in-vitro studies; from tissue; host or cells: rat brain synaptosomes (P2 fraction), hypothalamus of male rats
T1 sequence (Q63380 1-617): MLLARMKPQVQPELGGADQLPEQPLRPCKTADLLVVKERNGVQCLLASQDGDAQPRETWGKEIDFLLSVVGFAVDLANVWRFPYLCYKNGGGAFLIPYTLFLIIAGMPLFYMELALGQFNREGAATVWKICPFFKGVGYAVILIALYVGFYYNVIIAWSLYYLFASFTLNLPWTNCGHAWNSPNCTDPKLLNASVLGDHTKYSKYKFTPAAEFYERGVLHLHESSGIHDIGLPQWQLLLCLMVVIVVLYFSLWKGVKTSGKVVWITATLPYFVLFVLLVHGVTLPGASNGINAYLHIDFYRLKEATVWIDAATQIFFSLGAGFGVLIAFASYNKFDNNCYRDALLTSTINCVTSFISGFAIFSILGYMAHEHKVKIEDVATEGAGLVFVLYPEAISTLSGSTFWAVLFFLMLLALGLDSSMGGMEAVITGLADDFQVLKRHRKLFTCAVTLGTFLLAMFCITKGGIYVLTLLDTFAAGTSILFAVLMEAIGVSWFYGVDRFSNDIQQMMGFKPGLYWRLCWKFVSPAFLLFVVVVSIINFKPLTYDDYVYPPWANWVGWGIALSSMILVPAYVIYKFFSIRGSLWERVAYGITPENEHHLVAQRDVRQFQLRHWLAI
Protocol: Synaptosomes from rat brain areas were freshly isolated for the purposes of these in-vitro studies. In each case a “P2” fraction was used, which was prepared in accordance with the instructions given by Gray and Whittaker (E. G. Gray und V. P. Whittaker (1962) J. Anat. 76, 79-88). For NA uptake these vesicular particles were isolated from the hypothalamus of male rat brains.
(§1) A detailed description of the method can be found in the literature (M. Ch. Frink, H.-H. Hennies, W. Englberger, M. Haurand and B. Wilffert (1996) Arzneim.-Forsch./Drug Res. 46 (III), 11, 1029-1036).

[2] = biological target: T2, 5-HT re-uptake (Rattus norvegicus, UniProt P31652); test: Measurement of serotonin re-uptake in rat brain synaptosomes; assay type: biochemical; conditions: synaptosomes (P2 fraction) from medulla and pons region of male rat brains
T2 construct: Synaptosomes from rat brain areas were freshly isolated for the purposes of these in-vitro studies; from tissue; host or cells: rat brain synaptosomes (P2 fraction), medulla and pons of male rats
T2 sequence (P31652 whole entry): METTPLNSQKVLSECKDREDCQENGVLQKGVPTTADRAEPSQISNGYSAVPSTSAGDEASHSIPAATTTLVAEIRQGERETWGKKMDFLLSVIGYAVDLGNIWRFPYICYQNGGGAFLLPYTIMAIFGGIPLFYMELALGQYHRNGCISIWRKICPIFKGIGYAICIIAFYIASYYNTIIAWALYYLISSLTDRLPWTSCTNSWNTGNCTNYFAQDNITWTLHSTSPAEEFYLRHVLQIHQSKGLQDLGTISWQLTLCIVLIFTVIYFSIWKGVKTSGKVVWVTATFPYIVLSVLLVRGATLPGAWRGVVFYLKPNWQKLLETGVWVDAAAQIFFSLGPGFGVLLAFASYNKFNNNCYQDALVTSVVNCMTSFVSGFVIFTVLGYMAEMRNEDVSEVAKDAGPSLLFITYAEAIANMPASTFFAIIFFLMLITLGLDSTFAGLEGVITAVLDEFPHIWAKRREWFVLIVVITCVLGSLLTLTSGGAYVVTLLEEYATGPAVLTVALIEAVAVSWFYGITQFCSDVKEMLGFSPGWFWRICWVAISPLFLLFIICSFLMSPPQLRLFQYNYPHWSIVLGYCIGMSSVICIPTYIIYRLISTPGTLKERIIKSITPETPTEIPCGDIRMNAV
Protocol: Synaptosomes from rat brain areas were freshly isolated for the purposes of these in-vitro studies. In each case a “P2” fraction was used, which was prepared in accordance with the instructions given by Gray and Whittaker (E. G. Gray und V. P. Whittaker (1962) J. Anat. 76, 79-88). For 5HT uptake these vesicular particles were isolated from the medulla and pons region of male rat brains.
as §1

Row | SMILES | melting point [°C] | NA re-uptake [10 μm], % inhibition [1] [%] | 5-HT re-uptake [10 μm], % inhibition [2] [%]
1 | CCOC(=O)C12Cc3cc(OC)ccc3C(CN(Cc3ccccc3)C1)C2=O (stereo not drawn) | 84 to 85 |  | 
2 | CCOC(=O)C12Cc3ccccc3C(CN(Cc3ccccc3)C1)C2=O (stereo not drawn) | 117 to 119 |  | 
3 | CCOC(=O)C12Cc3ccc(C#N)cc3C(CN(Cc3ccccc3)C1)C2=O (stereo not drawn) | 158 to 160 |  | 
4 | CCOC(=O)C12Cc3ccccc3C(CN(C(=O)Nc3ccccc3)C1)C2=O (stereo not drawn) | 199 to 203 |  | 
5 | CCOC(=O)C12Cc3ccccc3C(CN(C)C1)C2=O (stereo not drawn) [Compound 9, Ethyl-N-methyl-11-oxo-1,3,4,6-tetrahydro-1,5-methano-3-benzazocine-5(2H)-carboxylate hydrochloride] |  | 80 | 77

— patent US20080312268A1, “Substituted tricyclic piperidone compounds” (Gruenenthal GMBH, priority 2005, published 2008)
